Holding throughout (format): cell-based
One assay deals with T1, Y1R (Homo sapiens, UniProt P25929).
T1 construct: expressed in transfected cells; host or cells: HEK293, transient
T1 sequence (P25929 1-384): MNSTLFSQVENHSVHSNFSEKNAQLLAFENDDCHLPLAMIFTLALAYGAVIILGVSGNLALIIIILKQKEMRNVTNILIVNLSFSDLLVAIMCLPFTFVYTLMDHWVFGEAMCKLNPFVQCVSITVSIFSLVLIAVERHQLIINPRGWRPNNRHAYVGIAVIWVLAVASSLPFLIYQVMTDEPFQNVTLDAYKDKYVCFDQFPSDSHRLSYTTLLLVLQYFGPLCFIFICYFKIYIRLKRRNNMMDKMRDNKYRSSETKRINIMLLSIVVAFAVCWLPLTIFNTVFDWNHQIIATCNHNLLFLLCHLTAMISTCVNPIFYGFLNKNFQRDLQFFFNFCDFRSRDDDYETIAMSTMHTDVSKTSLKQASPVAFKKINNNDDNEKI
The experiment in a line: IP accumulation assay, chimeric GαΔ6qi4myr, Y1R. Conditions: chimeric GαΔ6qi4myr co-transfected, transiently transfected HEK293 cells, mean of at least three independent experiments. The method, then:
(§1) For measuring IP accumulation, HEK293 cells grown to 70–80% confluency in 6-well plates were transiently co-transfected using Metafectene Pro (2.5 μl/μg DNA; Biontex) with plasmids containing receptor and/or mock (empty pcDNA3.1) (for endogenous Gq-coupling) using 4 μg total DNA in a ratio of 3:1 following the manufacturer’s instructions. For testing Gα16- and GαΔ6qi4myr-coupling, plasmids encoding the corresponding Gα protein were co-transfected instead of mock. Gα16 is naturally promiscuous and stimulates the phospholipase C (PLC) pathway leading to IP production, while the exchange of the C-terminal four amino acids of Gαq for the corresponding residues of Gαi1 in the chimeric GαΔ6qi4myr confers the ability to couple to Gi/o protein-preferring receptors but still stimulate PLC, thus specifically redirecting downstream cellular signaling. 16 h post transfection, the cells were seeded into white 384-well plates at a density of 20,000 cells/well. Media was removed 24 h later and the cells were incubated with the indicated concentration of peptides for 1 h in HBSS + 20 mM LiCl. IP accumulation was measured with the HTRF-based IP-One Gq kit (Cisbio) on a microplate reader (Tecan Spark).
(§2) For in vitro activation, data is presented as mean ± SEM of at least three independent experiments conducted in technical triplicate. […] For the C. elegans NPRs, we considered the strongest response elicited by any of the peptides downstream of a particular receptor as the receptor’s maximal signal. This may or may not be the biological maximum that can be reached by the ‘true’ endogenous agonist. For the human receptors, the response to the established endogenous agonist reflected the maximal signal.

The target in a further assay is T2, Y2R (Homo sapiens, UniProt P49146).
T2 construct: expressed in transfected cells; host or cells: HEK293, transient
T2 sequence (P49146 1-381): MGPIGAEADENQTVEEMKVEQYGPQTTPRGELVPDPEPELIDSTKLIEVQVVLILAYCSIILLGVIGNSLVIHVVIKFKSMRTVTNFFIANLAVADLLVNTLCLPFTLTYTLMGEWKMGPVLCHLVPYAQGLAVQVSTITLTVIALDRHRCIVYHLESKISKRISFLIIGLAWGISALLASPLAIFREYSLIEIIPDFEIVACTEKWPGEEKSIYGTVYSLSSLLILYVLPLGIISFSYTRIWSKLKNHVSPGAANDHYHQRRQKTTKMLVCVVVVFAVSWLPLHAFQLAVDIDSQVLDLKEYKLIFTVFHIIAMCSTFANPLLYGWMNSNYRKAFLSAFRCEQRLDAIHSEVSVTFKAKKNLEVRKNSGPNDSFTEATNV
Briefly: IP accumulation assay, chimeric GαΔ6qi4myr, Y2R. Conditions: chimeric GαΔ6qi4myr co-transfected, transiently transfected HEK293 cells, mean of at least three independent experiments. The method, then:
as §1, §2

A further assay concerns the target T3, Y4R (Homo sapiens, UniProt P50391).
T3 construct: expressed in transfected cells; host or cells: HEK293, transient
The experiment in a line: IP accumulation assay, chimeric GαΔ6qi4myr, Y4R. The following applies: chimeric GαΔ6qi4myr co-transfected, transiently transfected HEK293 cells, mean of at least three independent experiments. As for the experimental part: as §1, §2

For another assay, the target named is T4, Y5R (Homo sapiens, UniProt Q15761).
T4 construct: expressed in transfected cells; host or cells: HEK293, transient
T4 sequence (Q15761 1-445): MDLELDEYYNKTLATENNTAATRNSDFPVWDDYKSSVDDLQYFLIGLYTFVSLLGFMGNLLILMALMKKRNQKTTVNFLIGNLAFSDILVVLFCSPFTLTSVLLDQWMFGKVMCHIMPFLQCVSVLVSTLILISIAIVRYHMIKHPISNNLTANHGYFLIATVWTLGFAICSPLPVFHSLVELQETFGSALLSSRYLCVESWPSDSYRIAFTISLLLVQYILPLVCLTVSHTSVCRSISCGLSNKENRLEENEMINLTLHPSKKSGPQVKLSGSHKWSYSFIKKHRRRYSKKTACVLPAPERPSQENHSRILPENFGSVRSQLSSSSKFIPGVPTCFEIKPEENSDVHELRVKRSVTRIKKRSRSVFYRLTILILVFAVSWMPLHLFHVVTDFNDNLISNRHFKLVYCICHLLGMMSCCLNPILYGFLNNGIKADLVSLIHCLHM
Briefly: IP accumulation assay, chimeric GαΔ6qi4myr, Y5R. The following applies: chimeric GαΔ6qi4myr co-transfected, transiently transfected HEK293 cells, mean of at least three independent experiments. The method, then: as §1, §2

The next assay concerns the target T5, NPFF1R (Homo sapiens, UniProt Q9GZQ6).
T5 construct: expressed in transfected cells; host or cells: HEK293, transient
The experiment in a line: IP accumulation assay, chimeric GαΔ6qi4myr, NPFF1R. The following applies: chimeric GαΔ6qi4myr co-transfected, transiently transfected HEK293 cells, mean of at least three independent experiments. The method, then: as §1, §2

The next assay concerns the target T6, NPFF2R (Homo sapiens, UniProt Q9Y5X5).
T6 construct: expressed in transfected cells; host or cells: HEK293, transient
The experiment in a line: IP accumulation assay, chimeric GαΔ6qi4myr, NPFF2R. The following applies: chimeric GαΔ6qi4myr co-transfected, transiently transfected HEK293 cells, mean of at least three independent experiments. The method, then:
as §1, §2

Another assay addresses T7, QRFPR (Homo sapiens, UniProt Q96P65).
T7 construct: expressed in transfected cells; host or cells: HEK293, transient
T7 sequence (Q96P65 1-431): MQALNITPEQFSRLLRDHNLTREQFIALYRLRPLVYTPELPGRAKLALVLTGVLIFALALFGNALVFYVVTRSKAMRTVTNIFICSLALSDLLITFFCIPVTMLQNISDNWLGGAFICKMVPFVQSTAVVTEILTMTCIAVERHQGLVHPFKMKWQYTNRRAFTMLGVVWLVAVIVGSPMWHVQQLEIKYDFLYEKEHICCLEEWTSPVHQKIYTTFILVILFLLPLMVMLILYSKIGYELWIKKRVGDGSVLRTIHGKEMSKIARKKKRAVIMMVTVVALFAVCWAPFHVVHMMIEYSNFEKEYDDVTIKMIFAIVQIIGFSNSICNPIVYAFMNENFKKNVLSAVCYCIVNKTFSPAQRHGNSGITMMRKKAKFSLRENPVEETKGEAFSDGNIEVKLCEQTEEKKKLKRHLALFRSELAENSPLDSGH
Briefly: IP accumulation assay, endogenous Gαq coupling, QRFPR. The following applies: transiently transfected HEK293 cells, mean of at least three independent experiments. The method, then: as §1, §2

T5 sequence (Q9GZQ6 whole entry): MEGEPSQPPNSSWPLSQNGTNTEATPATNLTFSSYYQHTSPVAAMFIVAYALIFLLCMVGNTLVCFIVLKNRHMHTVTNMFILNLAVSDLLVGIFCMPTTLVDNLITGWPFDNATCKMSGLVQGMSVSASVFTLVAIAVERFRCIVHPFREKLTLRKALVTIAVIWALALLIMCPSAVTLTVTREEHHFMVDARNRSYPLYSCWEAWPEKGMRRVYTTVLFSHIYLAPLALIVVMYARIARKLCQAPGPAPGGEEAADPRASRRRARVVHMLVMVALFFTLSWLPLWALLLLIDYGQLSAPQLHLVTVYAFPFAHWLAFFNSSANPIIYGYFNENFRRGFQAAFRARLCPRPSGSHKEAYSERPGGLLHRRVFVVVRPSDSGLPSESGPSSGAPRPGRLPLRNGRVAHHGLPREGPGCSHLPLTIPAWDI
T3 sequence (P50391 whole entry): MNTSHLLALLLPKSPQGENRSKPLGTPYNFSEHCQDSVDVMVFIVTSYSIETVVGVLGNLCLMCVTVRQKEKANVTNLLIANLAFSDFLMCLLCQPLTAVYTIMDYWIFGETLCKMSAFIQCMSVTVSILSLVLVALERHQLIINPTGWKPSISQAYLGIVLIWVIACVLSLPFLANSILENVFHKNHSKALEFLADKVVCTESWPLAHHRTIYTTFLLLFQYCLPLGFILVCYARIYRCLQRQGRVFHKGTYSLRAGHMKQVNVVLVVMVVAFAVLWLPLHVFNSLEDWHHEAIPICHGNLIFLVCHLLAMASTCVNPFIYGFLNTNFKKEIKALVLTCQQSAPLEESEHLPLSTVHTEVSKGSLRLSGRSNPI
T6 sequence (Q9Y5X5 103-522): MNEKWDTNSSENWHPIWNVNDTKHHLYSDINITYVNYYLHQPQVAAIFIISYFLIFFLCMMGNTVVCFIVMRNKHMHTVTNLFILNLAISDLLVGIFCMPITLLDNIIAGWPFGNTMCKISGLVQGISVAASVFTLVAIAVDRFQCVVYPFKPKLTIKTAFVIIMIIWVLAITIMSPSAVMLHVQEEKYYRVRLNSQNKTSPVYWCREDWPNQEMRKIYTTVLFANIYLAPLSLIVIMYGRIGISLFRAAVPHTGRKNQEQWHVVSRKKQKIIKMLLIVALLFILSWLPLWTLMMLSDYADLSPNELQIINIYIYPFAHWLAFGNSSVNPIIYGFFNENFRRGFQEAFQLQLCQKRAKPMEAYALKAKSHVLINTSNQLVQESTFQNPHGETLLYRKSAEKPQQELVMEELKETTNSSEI

For the substance “AGSDPNFLRF-NH2 [FLP-1-2, C. elegans FMRFamide-like peptide, C-terminally amidated, synthesized by SPPS]”, the “IP accumulation, x-fold of basal (mean), Y1R” value (“IP accumulation, x-fold … Y1R” below) at Y1R (0.1 µM peptide) is given as 1.25 x-fold of basal; on Y1R (10 µM peptide), 3.68 x-fold of basal. For the same substance, the “IP accumulation, x-fold of basal (mean), Y2R” value (shortened to “IP accumulation, x-fold … Y2R”) at Y2R (0.1 µM peptide) is 2.81 x-fold of basal; on Y2R (10 µM peptide), 1.41 x-fold of basal. Besides, the “IP accumulation, x-fold of basal (mean), Y4R” value (“IP accumulation, x-fold … Y4R” for short) on Y4R (0.1 µM peptide) is 1.28 x-fold of basal; at Y4R (10 µM peptide), 1.45 x-fold of basal. In addition, the “IP accumulation, x-fold of basal (mean), Y5R” value (“IP accumulation, x-fold … Y5R” below) at Y5R (0.1 µM peptide) was 1.33 x-fold of basal; on Y5R (10 µM peptide), 1.17 x-fold of basal. In addition, the “IP accumulation, x-fold of basal (mean), NPFF1R” value (shortened to “IP accumulation, x-fold … NPFF1R”) is given as 2.11 x-fold of basal at NPFF1R (0.1 µM peptide) and 3.54 x-fold of basal at NPFF1R (10 µM peptide). Also, the results for the “IP accumulation, x-fold of basal (mean), NPFF2R” value (“IP accumulation, x-fold … NPFF2R” below) on NPFF2R (0.1 µM peptide) and at NPFF2R (10 µM peptide) were 1.10 x-fold of basal and 2.86 x-fold of basal, respectively. Further, the “IP accumulation, x-fold of basal (mean), QRFPR#” value (from here on “IP accumulation, x-fold … QRFPR#”) on QRFPR (0.1 µM peptide) is reported as 1.07 x-fold of basal; on QRFPR (10 µM peptide) it was 0.92 x-fold of basal.
On to “NPENDTPFGTMRF-NH2 [FLP-3-4, C. elegans FMRFamide-like peptide, C-terminally amidated, synthesized by SPPS]”, for which the entries for the “IP accumulation, x-fold … Y1R” value on Y1R (0.1 µM peptide) and on Y1R (10 µM peptide) were 1.54 x-fold of basal and 3.82 x-fold of basal, respectively. The results for the “IP accumulation, x-fold … Y2R” value on Y2R (0.1 µM peptide) and on Y2R (10 µM peptide) were 1.01 x-fold of basal and 0.70 x-fold of basal, respectively. In addition, the “IP accumulation, x-fold … Y4R” value on Y4R (0.1 µM peptide) was 1.31 x-fold of basal; on Y4R (10 µM peptide), 1.29 x-fold of basal. Also, the “IP accumulation, x-fold … Y5R” value is given as 0.67 x-fold of basal on Y5R (0.1 µM peptide) and 1.41 x-fold of basal at Y5R (10 µM peptide). The “IP accumulation, x-fold … NPFF1R” value on NPFF1R (0.1 µM peptide) is recorded as 1.29 x-fold of basal; at NPFF1R (10 µM peptide) it was 3.42 x-fold of basal. In addition, the “IP accumulation, x-fold … NPFF2R” value on NPFF2R (0.1 µM peptide) is on record as 1.58 x-fold of basal; on NPFF2R (10 µM peptide) it was 3.28 x-fold of basal. Also, the “IP accumulation, x-fold … QRFPR#” value is 1.42 x-fold of basal at QRFPR (0.1 µM peptide) and 1.52 x-fold of basal at QRFPR (10 µM peptide).
On to “TPDINPAWYASRGIRPVGRF-NH2 [PrRP20, human prolactin-releasing peptide, 20 residues, reference compound]”, for which the “IP accumulation, x-fold … Y1R” value is listed as 0.82 x-fold of basal at Y1R (0.1 µM peptide) and 2.68 x-fold of basal at Y1R (10 µM peptide). Moreover, the “IP accumulation, x-fold … Y2R” value is 0.81 x-fold of basal at Y2R (0.1 µM peptide) and 5.05 x-fold of basal at Y2R (10 µM peptide). Also, the figures for the “IP accumulation, x-fold … Y4R” value at Y4R (0.1 µM peptide) and at Y4R (10 µM peptide) were 0.80 x-fold of basal and 0.89 x-fold of basal, respectively. In addition, the “IP accumulation, x-fold … Y5R” value on Y5R (0.1 µM peptide) is listed as 1.01 x-fold of basal; on Y5R (10 µM peptide), 5.90 x-fold of basal. The figures for the “IP accumulation, x-fold … NPFF1R” value on NPFF1R (0.1 µM peptide) and on NPFF1R (10 µM peptide) were 0.94 x-fold of basal and 2.37 x-fold of basal, respectively. Also, the “IP accumulation, x-fold … NPFF2R” value on NPFF2R (0.1 µM peptide) is 1.75 x-fold of basal; on NPFF2R (10 µM peptide), 2.32 x-fold of basal. In addition, the “IP accumulation, x-fold … QRFPR#” value on QRFPR (0.1 µM peptide) was 0.59 x-fold of basal; at QRFPR (10 µM peptide), 0.63 x-fold of basal.

The values above are taken from article PMC6751662, “Pharmacological and functional similarities of the human neuropeptide Y system in C. elegans challenges phylogenetic views on the FLP/NPR system” (Cell Communication and Signaling : CCS, 2019).
